According to patent publication US20200069664A1, “METHODS FOR TREATING INFECTION” (Salix Pharmaceuticals, Ltd, priority 2010, published 2020):
Entries after “also recorded” stand apart in the source; their conditions may differ. Like-named read-outs stand apart in the source and are kept apart here.

Key:
ETEC strains = test: Isolate viability after rifaximin exposure, ETEC; type: cell-based, E coli
S sonnei isolate = test: Isolate viability after rifaximin exposure, S sonnei; type: cell-based
ETEC isolates = type: cell-based, E coli
C difficile isolates = settings: cited from earlier work
[1] = rifaximin 8 mg/L, exposure 4 hrs
[2] = rifaximin 8 mg/L, exposure 8 hrs
[3] = rifaximin 8 mg/L, exposure 18 hrs
[4] = rifaximin 8 mg/L, exposure 24 hrs
[5] = rifaximin 32 mg/L, exposure 4 hrs
[6] = rifaximin 32 mg/L, exposure 8 hrs
[7] = rifaximin 32 mg/L, exposure 18 hrs
[8] = rifaximin 64 mg/L, exposure 4 hrs
[9] = rifaximin 64 mg/L, exposure 8 hrs
[10] = 110 C difficile isolates, 1983 to 2004

## (2S,16Z,18E,20S,21S ,22R, 23R,24R,255,265,275,28E)-5,6,21,23,25 Pentahydroxy-27-methoxy-2,4,11,16,20,22,24,26-octamethyl-2,7-(epoxypentadeca-(1,11,13) trienimino) benzofuro (4,5-e) pyrido(1,2,-a) benzimidazole-1,15(2H)-dione,25-acetate [Rifaximin]
ETEC strains; rifaximin 8 mg/L for 24 hours
  ETEC viability: viable
ETEC strains; rifaximin 64 mg/L for 18 hours
  ETEC viability: No ETEC isolates were viable; also recorded: not viable
ETEC strains; rifaximin 8, 32, and 64 mg/L for 4 and 8 hours
  ETEC viability: viable
ETEC strains; rifaximin 8 and 32 mg/L for 18 hours
  ETEC viability: viable
ETEC strains; rifaximin 32 and 64 mg/L for 24 hours
  ETEC viability: No ETEC isolates were viable; also recorded: not viable
S sonnei isolate; rifaximin 8 mg/L for 4, 8, 18, and 24 hours
  S sonnei viability: viable
S sonnei isolate; rifaximin 32 or 64 mg/L at any time point examined
  S sonnei viability: not viable
ETEC isolates; 4- and 8-hour exposure to rifaximin 8, 32, and 64 mg/L
  Expression of virulence factors (ST, LT, CS2/CS3, CS6) by ETEC isolates: expressed all examined virulence factors
ETEC isolates; 18 hours, rifaximin 8 mg/L
  Expression of virulence factors (ST, LT, CS2/CS3, CS6) by ETEC isolates: all virulence factors were expressed
ETEC isolates; 18 hours, rifaximin 32 mg/L
  Expression of virulence factors (ST, LT, CS2/CS3, CS6) by ETEC isolates: no factors were seen
ETEC isolates; 24 hours, rifaximin 8 mg/L
  Expression of virulence factors (ST, LT, CS2/CS3, CS6) by ETEC isolates: did not express any virulence factors
ETEC isolates; [1]
  Expression of CS2/CS3 in ETEC isolates: +
  Expression of CS6 in ETEC isolates: +
  Expression of LT in ETEC isolates: +
  Expression of ST in ETEC isolates: +
  Expression of ST/LT in ETEC isolates: +
ETEC isolates; [2]
  Expression of CS2/CS3 in ETEC isolates: +
  Expression of CS6 in ETEC isolates: +
  Expression of LT in ETEC isolates: +
  Expression of ST in ETEC isolates: +
  Expression of ST/LT in ETEC isolates: +
ETEC isolates; [3]
  Expression of CS2/CS3 in ETEC isolates: +
  Expression of CS6 in ETEC isolates: +
  Expression of LT in ETEC isolates: +
  Expression of ST in ETEC isolates: +
  Expression of ST/LT in ETEC isolates: +
ETEC isolates; [4]
  Expression of CS2/CS3 in ETEC isolates: −
  Expression of CS6 in ETEC isolates: −
  Expression of LT in ETEC isolates: −
  Expression of ST in ETEC isolates: −
  Expression of ST/LT in ETEC isolates: −
ETEC isolates; [5]
  Expression of CS2/CS3 in ETEC isolates: +
  Expression of CS6 in ETEC isolates: +
  Expression of LT in ETEC isolates: +
  Expression of ST in ETEC isolates: +
  Expression of ST/LT in ETEC isolates: +
ETEC isolates; [6]
  Expression of CS2/CS3 in ETEC isolates: +
  Expression of CS6 in ETEC isolates: +
  Expression of LT in ETEC isolates: +
  Expression of ST in ETEC isolates: +
  Expression of ST/LT in ETEC isolates: +
ETEC isolates; [7]
  Expression of CS2/CS3 in ETEC isolates: −
  Expression of CS6 in ETEC isolates: −
  Expression of LT in ETEC isolates: −
  Expression of ST in ETEC isolates: −
  Expression of ST/LT in ETEC isolates: −
ETEC isolates; [8]
  Expression of CS2/CS3 in ETEC isolates: +
  Expression of CS6 in ETEC isolates: +
  Expression of LT in ETEC isolates: +
  Expression of ST in ETEC isolates: +
  Expression of ST/LT in ETEC isolates: +
ETEC isolates; [9]
  Expression of CS2/CS3 in ETEC isolates: +
  Expression of CS6 in ETEC isolates: +
  Expression of LT in ETEC isolates: +
  Expression of ST in ETEC isolates: +
  Expression of ST/LT in ETEC isolates: +
C difficile isolates; 110 C difficile isolates from multiple locations
  Isolates resistant to rifaximin, based on MIC values: 2.7%
C difficile isolates; [10]
  MIC50: 0.0075 µg/mL
  MIC90: 0.015 µg/mL
